Results published in US8633245B2, “PAI-1 inhibitor” (Institute of Medicinal Molecular Design, Inc., priority 2008, dated 2014).

Biological target: T1, recombinant human PAI-1 (Homo sapiens, UniProt P05121)
T1 construct: purchased Molecular Innovations, Inc
Experiment: Test Example 1: human PAI-1 inhibitory activity (tPA fluorogenic substrate, pH 7.5 Tris buffer)
Format: biochemical
Conditions: Tris buffer
Method: 50 mM Tris, 150 mM NaCl, 10 μg/ml BSA, 0.01% Tween80 (SIGMA-ALDRICH Corporation)

T1 sequence (P05121 24-402): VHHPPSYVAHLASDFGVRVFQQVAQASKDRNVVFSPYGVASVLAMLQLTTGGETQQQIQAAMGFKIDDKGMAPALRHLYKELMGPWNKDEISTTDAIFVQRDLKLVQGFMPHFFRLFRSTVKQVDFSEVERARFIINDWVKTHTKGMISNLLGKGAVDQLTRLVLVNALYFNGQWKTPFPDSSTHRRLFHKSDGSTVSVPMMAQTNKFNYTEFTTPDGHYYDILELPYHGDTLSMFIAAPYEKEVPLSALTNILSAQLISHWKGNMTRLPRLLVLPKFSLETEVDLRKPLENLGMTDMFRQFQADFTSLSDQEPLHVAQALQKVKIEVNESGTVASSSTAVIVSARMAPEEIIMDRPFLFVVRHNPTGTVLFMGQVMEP

Compound	Inhibition Rate of PAI-1 Activity (%) (Compound Concentration 5 μM)	Inhibition Rate of PAI-1 Activity (%) (Compound Concentration 10 μM)	Inhibition Rate of PAI-1 Activity (%) (Compound Concentration 25 μM)
O=C(O)C(=O)N(CCCCc1ccccc1)c1ccc(-c2ccc(OC(F)(F)F)cc2)cc1 [Compound 225]	27	50	88
O=C(O)C(=O)N(CCCCCc1ccccc1)c1ccc(-c2ccc(OC(F)(F)F)cc2)cc1 [Compound 228]	45	71	95
CCCOc1ccc(N(CCCc2ccccc2)C(=O)C(=O)O)cc1-c1ccc(OC(F)(F)F)cc1 [Compound 229]	48	80	94
CCCOc1ccc(N(CCCc2ccccc2)C(=O)C(=O)O)c(-c2ccc(OC(F)(F)F)cc2)c1 [Compound 232]	52	82	96
CCCOc1ccc(-c2ccc(OC(F)(F)F)cc2)cc1N(CCCc1ccccc1)C(=O)C(=O)O [Compound 234]	59	83	96
CCCCOc1ccc(-c2ccc(OC(F)(F)F)cc2)cc1N(CCCc1ccccc1)C(=O)C(=O)O [Compound 235]	66	89	93
CCCOc1ccc(-c2ccc(OC(F)(F)F)cc2)cc1N(CCCCc1ccccc1)C(=O)C(=O)O [Compound 236]	61	86	95
CCC(CC)Oc1ccc(N(CCCc2ccccc2)C(=O)C(=O)O)c(-c2ccc(OC(F)(F)F)cc2)c1 [Compound 237]	75	92	
CC(C)Oc1ccc(N(CCCc2ccccc2)C(=O)C(=O)O)c(-c2ccc(OC(F)(F)F)cc2)c1 [Compound 239]	43	80	98
CCCOc1ccc(N(CCCCc2ccccc2)C(=O)C(=O)O)cc1-c1ccc(OC(F)(F)F)cc1 [Compound 240]	62	91	95
CCCCCOc1ccc(-c2ccc(OC(F)(F)F)cc2)cc1N(CCCCCc1ccccc1)C(=O)C(=O)O [Compound 242]	88	94	
O=C(O)C(=O)N(CCCCc1ccccc1)c1ccc(N2CCOCC2)c(-c2ccc(OC(F)(F)F)cc2)c1 [Compound 243]	42	64	89
CCCCCOc1ccc(N(CCCCc2ccccc2)C(=O)C(=O)O)cc1-c1ccc(OC(F)(F)F)cc1 [Compound 244]	71	91	
CCCCCCOc1ccc(-c2ccc(OC(F)(F)F)cc2)cc1N(CCCCc1ccccc1)C(=O)C(=O)O [Compound 245]	93	97	
Cc1cc(N(C)C)c(-c2ccc(OC(F)(F)F)cc2)cc1N(CCCCc1ccccc1)C(=O)C(=O)O [Compound 246]	79	96	
O=C(O)C(=O)N(CCCCc1ccccc1)c1ccc(N2CCCCC2)c(-c2ccc(OC(F)(F)F)cc2)c1 [Compound 247]	93	99	

Compound	Inhibition Rate of PAI-1 Activity (%) (Compound Concentration 5 μM)	Inhibition Rate of PAI-1 Activity (%) (Compound Concentration 10 μM)	Inhibition Rate of PAI-1 Activity (%) (Compound Concentration 25 μM)
CC(C)Oc1ccc(N(CCCCc2ccccc2)C(=O)C(=O)O)cc1-c1ccc(OC(F)(F)F)cc1 [Compound 248]	60	89	96
CC(C)(C)Oc1ccc(N(CCCCc2ccccc2)C(=O)C(=O)O)cc1-c1ccc(OC(F)(F)F)cc1 [Compound 249]	68	89	
O=C(O)C(=O)N(CCCCc1ccccc1)c1ccc(N2CCCCC2=O)c(-c2ccc(OC(F)(F)F)cc2)c1 [Compound 250]	83	78	
CCCCCCN(C(=O)C(=O)O)c1ccc(Oc2ccc(OC(F)(F)F)cc2)cc1 [Compound 252]	3	6	34
O=C(O)C(=O)N(c1ccc(-c2ccc(OC(F)(F)F)cc2)cc1)C1CCCCC1 [Compound 253]	9	16	36
CCCCCN(C(=O)C(=O)O)c1ccc(-c2ccc(OC(F)(F)F)cc2)cc1 [Compound 254]	3	9	31
CC(C)(C)CN(C(=O)C(=O)O)c1ccc(-c2ccc(OC(F)(F)F)cc2)cc1 [Compound 255]	2	8	23
O=C(O)CCc1cc(OCc2ccc(OC(F)(F)F)cc2)ccc1OCc1ccc(OC(F)(F)F)cc1 [Compound 404]	14	31	84
CC(C)(C)c1ccc(COc2cc(/C=C/C(=O)O)cc(Oc3ccc(OC(F)(F)F)cc3)c2)cc1 [Compound 409]	26	59	97
CC(C)(C)c1ccc(COc2cc(CCC(=O)O)cc(Oc3ccc(OC(F)(F)F)cc3)c2)cc1 [Compound 410]	37	71	98
CC(C)(C)c1ccc(COc2ccc(Nc3ccc(OC(F)(F)F)cc3)cc2CCC(=O)O)cc1 [Compound 412]	22	46	92
CC(C)(C)c1ccc(COc2ccc(OCc3ccc(OC(F)(F)F)cc3)cc2/C=C/C(=O)O)cc1 [Compound 413]	38	66	84
CC(C)(C)c1ccc(COc2ccc(OCc3ccc(OC(F)(F)F)cc3)cc2CCC(=O)O)cc1 [Compound 414]	33	67	96
CN(c1ccc(OC(F)(F)F)cc1)c1ccc(OCc2ccc(C(C)(C)C)cc2)c(CCC(=O)O)c1 [Compound 417]	44	79	98
CC(C)(Nc1cc(-c2ccc(OC(F)(F)F)cc2)ccc1OCc1ccc(C(C)(C)C)cc1)C(=O)O [Compound 420]	42	64	83
CC(C)(C)c1ccc(COc2ccc(-c3ccc(OC(F)(F)F)cc3)cc2NCC(=O)O)cc1 [Compound 539]	14	34	65
